Where “and” joins values, the source holds several entries; their conditions need not be identical. Identical values can stand only once. Entries after “also recorded” stand apart in the source; their conditions may differ. Like-named read-outs stand apart in the source and are kept apart here.
Experiments:
human PPARγ = target: T1, human PPARγ (Homo sapiens, UniProt P37231); assay type: cell-based; details: for PPARγ agonist activity (result in words): 24 hr exposure, vs vehicle control; for fold increase in PPARγ activity relative to vehicle control: 10-fold concentration intervals (Fig. 4)
T1 sequence (P37231 1-505): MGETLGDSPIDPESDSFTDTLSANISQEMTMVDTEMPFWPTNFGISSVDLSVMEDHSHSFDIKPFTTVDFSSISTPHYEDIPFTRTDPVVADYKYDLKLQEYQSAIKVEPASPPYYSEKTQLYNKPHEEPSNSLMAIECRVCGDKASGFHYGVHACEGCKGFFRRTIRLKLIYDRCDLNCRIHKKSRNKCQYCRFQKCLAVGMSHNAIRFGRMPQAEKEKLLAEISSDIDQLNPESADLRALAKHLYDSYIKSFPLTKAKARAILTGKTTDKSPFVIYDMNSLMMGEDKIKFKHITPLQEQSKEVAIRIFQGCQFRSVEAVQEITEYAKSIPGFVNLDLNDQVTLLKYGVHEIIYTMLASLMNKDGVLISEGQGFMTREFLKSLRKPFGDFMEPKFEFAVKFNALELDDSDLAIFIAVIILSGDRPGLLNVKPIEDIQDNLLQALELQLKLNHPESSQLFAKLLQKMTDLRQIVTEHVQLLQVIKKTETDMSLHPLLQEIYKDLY

[1] = tested on: caspase 3 activity in D283 Med cells; experiment: caspase 3 activity assay in cell lysates; assay type: cell-based, human; details: 6 hour exposure
D283 Med cells = experiment: MTS viability assay; assay type: cell-based, human; details: 1 μM to 30 μM, 48 hour exposure (Fig. 6 legend)
CHO PPARγ reporter cells = assay type: cell-based, Chinese Hamster; details: 0.1 μM to 100 μM; 24 hr

## CCCCC(CC)COC(=O)c1cc(Br)c(Br)c(Br)c1Br (stereo not shown) [TBB, 2-ethylhexyl-2,3,4,5-tetrabromobenzoate]
Human PPARγ
  PPARγ agonist activity (result in words): No statistical differences; also recorded: No activity

## C=[CH][Sn]([CH2]CCC)([CH2]CCC)[CH2]CCC [TBVT, Tributyl(vinyl)tin, reference compound]
Human PPARγ
  Concentration of maximal PPARγ activity observed: 10 µM
Human PPARγ; 10 μM (10^-5 M)
  fold increase in PPARγ activity relative to vehicle control: 3 fold and 3.3 ± 0.3 fold

## O=P(Oc1ccccc1)(Oc1ccccc1)Oc1ccccc1 [TPP, triphenyl phosphate]
[1]
  concentration above which caspase activity significantly increased: above 1 μM
  effect on caspase 3 activity: significant dose dependent increases in caspase 3 activities
D283 Med cells
  effect on viability: decreased viability
CHO PPARγ reporter cells
  effect on cell viability: dose dependent decreases in cell viability
Human PPARγ
  Concentration of maximal PPARγ activity observed: 30 µM
  PPARγ agonist activity (result in words): Significant agonist activity
Human PPARγ; 10 μM (10^-5 M)
  fold increase in PPARγ activity relative to vehicle control: 6.23 ± 0.63 fold and 6.2 fold
Human PPARγ; 30 μM, focused analysis with half-log (3-fold) increments (Fig. 5)
  fold increase in PPARγ activity: 20 ± 2.2 fold
Human PPARγ; 100 μM
  fold increase in PPARγ activity relative to vehicle control: 2.84 ± 0.34 fold
Human PPARγ; TPP at 30 μM
  relative maximal PPARγ activity, percent of TPT Cl: 57% ± 6%

## [Cl][Sn]([c]1ccccc1)([c]1ccccc1)[c]1ccccc1 [TPT Cl, triphenyltin chloride, reference compound]
Human PPARγ
  Concentration of maximal PPARγ activity observed: 0.1 µM
Human PPARγ; non-monotonic concentration response
  concentration above which PPARγ activity decreased: > 0.1 µM
Human PPARγ; read-out: AC50, concentration eliciting half-maximal response, 4-parameter variable slope model
  AC50: 3 nM and 3.3 nM
